According to US11986532B2 (Arvinas Operations, Inc., priority 2021, dated 2024):
Like-named read-outs stand apart in the source and are kept apart here.

Biological target: T1, BCL6 (Homo sapiens, UniProt P41182)
T1 construct: endogenous in cells; host or cells: T47D breast cancer epithelial cells
Test: Immunofluorescence protocol for high content imaging of BCL6 (degradation) in T47D cells, 3 days compound treatment
Format: cell-based
Details: for DC50: read-out: Mean DC50 (nM)* category; for Dmax: read-out: Mean Dmax (%)** category
Outline: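 T47D cells in RPMI1640-10% FBS were treated with an 11-point 3-fold dilution series (final top 0.1 or 1 μM) for 3 days at 37° C. After PFA fixation and Triton permeabilization, cells were immunostained with rabbit anti-BCL6 (1:300, overnight 4° C), Alexa-488 secondary, CellMask-647 and Hoechst, then imaged at 10×, 4 fields/well.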

[1] = T47D cells, 3 days compound treatment

Compound	DC50 [1] [nM]	Dmax [1] [%]	Dmax (T47D) [%]	DC50 [nM]
CNC(=O)COc1cc2cc(Nc3nc(N4CCOC5(CN(CCC6CCN(c7cccc8c7C(=O)N(C7CCC(=O)NC7=O)C8=O)CC6)C5)C4)ncc3Cl)ccc2n(C(C)C)c1=O (centres unmarked) [Compound 16]	≥ 100			
CNC(=O)COc1cc2cc(Nc3nc(N4CCC(CN5CCC6(CC5)CN(c5ccc7c(c5)C(=O)N(C5CCC(=O)NC5=O)C7=O)C6)CC4)ncc3Cl)ccc2n(CCOC)c1=O (centres unmarked) [Compound 37, 2-{[6-({5-chloro-2-[4-({2-[2-(2,6-dioxopiperidin-3-yl)-1,3-dioxo-2,3-dihydro-1H-isoindol-5-yl]-2,7-diazaspiro[3.5]nonan-7-yl}methyl)piperidin-1-yl]pyrimidin-4-yl}amino)-1-(2-methoxyethyl)-2-oxo-1,2-dihydroquinolin-3-yl]oxy}-N-methylacetamide]	< 10	50 to 70		
CNC(=O)COc1cc2cc(Nc3nc(N4CCC(O[C@H]5C[C@H](N6CCC(c7ccc8c(c7F)CN(C7CCC(=O)NC7=O)C8=O)CC6)C5)CC4)ncc3Cl)ccc2n(C2CCCC2)c1=O (some centres unmarked) [Compound 191, 2-({6-[(5-chloro-2-{4-[(1r,3r)-3-{4-[2-(2,6-dioxopiperidin-3-yl)-4-fluoro-1-oxo-2,3-dihydro-1H-isoindol-5-yl]piperidin-1-yl}cyclobutoxy]piperidin-1-yl}pyrimidin-4-yl)amino]-1-cyclopentyl-2-oxo-1,2-dihydroquinolin-3-yl}oxy)-N-methylacetamide]	< 10	≥ 70		
CC(C)n1c(=O)c(OCC(=O)O)cc2cc(Nc3nc(N4CCC(O[C@H]5C[C@H](N6CCC(c7ccc8c(c7F)CN(C7CCC(=O)NC7=O)C8=O)CC6)C5)CC4)ncc3Cl)ccc21 (some centres unmarked) [Compound 264, 2-({6-[(5-chloro-2-{4-[(1r,3r)-3-{4-[2-(2,6-dioxopiperidin-3-yl)-4-fluoro-1-oxo-2,3-dihydro-1H-isoindol-5-yl]piperidin-1-yl}cyclobutoxy]piperidin-1-yl}pyrimidin-4-yl)amino]-2-oxo-1-(propan-2-yl)-1,2-dihydroquinolin-3-yl}oxy)acetic acid]			≥ 70	< 10
CNC(=O)COc1cc2cc(Nc3nc(N4CCC5(CC4)CN(C(C)(C)C4CCN(c6cccc7c6CN(C6CCC(=O)NC6=O)C7=O)CC4)C5)ncc3Cl)ccc2n(C(C)C)c1=O (centres unmarked) [Compound 36, 2-{[6-({5-chloro-2-[2-(2-{1-[2-(2,6-dioxopiperidin-3-yl)-1-oxo-2,3-dihydro-1H-isoindol-4-yl]piperidin-4-yl}propan-2-yl)-2,7-diazaspiro [3.5]nonan-7-yl]pyrimidin-4-yl}amino)-2-oxo-1-(propan-2-yl)-1,2-dihydroquinolin-3-yl]oxy}-N-methylacetamide]	< 10	≥ 70		
CNC(=O)COc1cc2cc(Nc3nc(N4CCN(C(C)(C)C5CCN(c6ccc7c(c6F)CN(C6CCC(=O)NC6=O)C7=O)CC5)CC4)ncc3Cl)ccc2n(C(C)C)c1=O (centres unmarked) [Compound 89, 2-{[6-({5-chloro-2-[4-(2-{1-[2-(2,6-dioxopiperidin-3-yl)-4-fluoro-1-oxo-2,3-dihydro-1H-isoindol-5-yl]piperidin-4-yl}propan-2-yl)piperazin-1-yl]pyrimidin-4-yl}amino)-2-oxo-1-(propan-2-yl)-1,2-dihydroquinolin-3-yl]oxy}-N-methylacetamide]	< 10	50 to 70		
CNC(=O)COc1cc2cc(Nc3nc(N4CCC(O[C@H]5C[C@H](N6CCC(c7cc8c(cc7F)C(=O)N(C7CCC(=O)NC7=O)C8)CC6)C5)CC4)ncc3Cl)ccc2n(C(C)C)c1=O (some centres unmarked) [Compound 79, 2-({6-[(5-chloro-2-{4-[(1r,3r)-3-{4-[2-(2,6-dioxopiperidin-3-yl)-6-fluoro-1-oxo-2,3-dihydro-1H-isoindol-5-yl]piperidin-1-yl}cyclobutoxy]piperidin-1-yl}pyrimidin-4-yl)amino]-2-oxo-1-(propan-2-yl)-1,2-dihydroquinolin-3-yl}oxy)-N-methylacetamide]	< 10	50 to 70		
CNC(=O)COc1cc2cc(Nc3nc(N4CCC(O[C@H]5C[C@H](N6CCC7(CCN(c8ccc9c(c8)CN(C8CCC(=O)NC8=O)C9=O)CC7)CC6)C5)CC4)ncc3Cl)ccc2n(C(C)C)c1=O (some centres unmarked) [Compound 349, 2-({6-[(5-chloro-2-{4-[(1r,3r)-3-{9-[2-(2,6-dioxopiperidin-3-yl)-1-oxo-2,3-dihydro-1H-isoindol-5-yl]-3,9-diazaspiro [5.5]undecan-3-yl}cyclobutoxy]piperidin-1-yl}pyrimidin-4-yl)amino]-2-oxo-1-(propan-2-yl)-1,2-dihydroquinolin-3-yl}oxy)-N-methylacetamide]			≥ 70	< 10
CNC(=O)COc1cc2cc(Nc3nc(N4CCN(C[C@H]5C[C@@H](N6CCC(c7cccc8c7C(=O)N(C7CCC(=O)NC7=O)C8=O)CC6)C5)CC4)ncc3Cl)ccc2n(C(C)C)c1=O (some centres unmarked) [Compound 23, 2-[(6-{[5-chloro-2-(4-{[(1s,3s)-3-{4-[2-(2,6-dioxopiperidin-3-yl)-1,3-dioxo-2,3-dihydro-1H-isoindol-4-yl]piperidin-1-yl}cyclobutyl]methyl}piperazin-1-yl)pyrimidin-4-yl]amino}-2-oxo-1-(propan-2-yl)-1,2-dihydroquinolin-3-yl)oxy]-N-methylacetamide]	50 to 100	< 50		

Second part, the compound after the results:

DC50 [1] [nM]	Dmax [1] [%]	Dmax (T47D) [%]	DC50 [nM]	Compound
≥ 100				CNC(=O)COc1cc2cc(Nc3nc(N4CCOC5(CN(CC6CCN(c7ccc8c(c7)C(=O)N(C7CCC(=O)NC7=O)C8=O)CC6)C5)C4)ncc3Cl)ccc2n(C(C)C)c1=O (centres unmarked) [Compound 142, 2-{[6-({5-chloro-2-[2-({1-[2-(2,6-dioxopiperidin-3-yl)-1,3-dioxo-2,3-dihydro-1H-isoindol-5-yl]piperidin-4-yl}methyl)-5-oxa-2,8-diazaspiro[3.5]nonan-8-yl]pyrimidin-4-yl}amino)-2-oxo-1-(propan-2-yl)-1,2-dihydroquinolin-3-yl]oxy}-N-methylacetamide]
< 10	≥ 70			CNC(=O)COc1cc2cc(Nc3nc(N4CCC(O[C@H]5C[C@H](N6CCN(c7ccc8c(c7F)CN(C7CCC(=O)NC7=O)C8=O)C[C@H]6C)C5)CC4)ncc3Cl)ccc2n(C(C)C)c1=O (some centres unmarked) [Compound 182]
		≥ 70	< 10	CNC(=O)COc1cc2c(F)c(Nc3nc(N4CCC(CN5CCC6(CC5)CN(c5ccc7c(c5)C(=O)N(C5CCC(=O)NC5=O)C7=O)C6)CC4)ncc3Cl)ccc2n(C(C)C)c1=O (centres unmarked) [Compound 347, 2-{[6-({5-chloro-2-[4-({2-[2-(2,6-dioxopiperidin-3-yl)-1,3-dioxo-2,3-dihydro-1H-isoindol-5-yl]-2,7-diazaspiro[3.5]nonan-7-yl}methyl)piperidin-1-yl]pyrimidin-4-yl}amino)-5-fluoro-2-oxo-1-(propan-2-yl)-1,2-dihydroquinolin-3-yl]oxy}-N-methylacetamide]
50 to 100	< 50			CNC(=O)COc1cc2cc(Nc3nc(N4CCC(OC5CCC(N6CCC(c7cccc8c7C(=O)N(C7CCC(=O)NC7=O)C8=O)CC6)C5)CC4)ncc3Cl)ccc2n(C(C)C)c1=O (centres unmarked) [Compound 148, 2-({6-[(5-chloro-2-{4-[(3-{4-[2-(2,6-dioxopiperidin-3-yl)-1,3-dioxo-2,3-dihydro-1H-isoindol-4-yl]piperidin-1-yl}cyclopentyl)oxy]piperidin-1-yl}pyrimidin-4-yl)amino]-2-oxo-1-(propan-2-yl)-1,2-dihydroquinolin-3-yl}oxy)-N-methylacetamide]
		50 to 70	< 10	CNC(=O)COc1cc2cc(Nc3cc(N4CCC(CN5CCC6(CN(c7ccc8c(c7F)CN(C7CCC(=O)NC7=O)C8=O)C6)C(F)(F)C5)CC4)ncc3Cl)ccc2n(C(C)C)c1=O (centres unmarked) [Compound 237, 2-{[6-({5-chloro-2-[4-({2-[2-(2,6-dioxopiperidin-3-yl)-4-fluoro-1-oxo-2,3-dihydro-1H-isoindol-5-yl]-5,5-difluoro-2,7-diazaspiro[3.5]nonan-7-yl}methyl)piperidin-1-yl]pyridin-4-yl}amino)-2-oxo-1-(propan-2-yl)-1,2-dihydroquinolin-3-yl]oxy}-N-methylacetamide]
< 10	50 to 70			CNC(=O)COc1cc2cc(Nc3nc(N4CCC(CN5CCC6(CN(c7cc8c(cc7F)C(=O)N(C7CCC(=O)NC7=O)C8)C6)C(F)(F)C5)CC4)ncc3Cl)ccc2n(C(C)C)c1=O (centres unmarked) [Compound 100, 2-{[6-({5-chloro-2-[4-({2-[2-(2,6-dioxopiperidin-3-yl)-6-fluoro-1-oxo-2,3-dihydro-1H-isoindol-5-yl]-5,5-difluoro-2,7-diazaspiro[3.5]nonan-7-yl}methyl)piperidin-1-yl]pyrimidin-4-yl}amino)-2-oxo-1-(propan-2-yl)-1,2-dihydroquinolin-3-yl]oxy}-N-methylacetamide]
		50 to 70	< 10	CNC(=O)COc1cc2cc(Nc3nc(N4CCC(N5CCC56CN(C5CCN(c7ccc8c(c7)CN(C7CCC(=O)NC7=O)C8=O)C5)C6)CC4)ncc3Cl)ccc2n(C(C)C)c1=O (centres unmarked) [Compound 234, 2-{[6-({5-chloro-2-[4-(6-{1-[2-(2,6-dioxopiperidin-3-yl)-1-oxo-2,3-dihydro-1H-isoindol-5-yl]pyrrolidin-3-yl}-1,6-diazaspiro[3.3]heptan-1-yl)piperidin-1-yl]pyrimidin-4-yl}amino)-2-oxo-1-(propan-2-yl)-1,2-dihydroquinolin-3-yl]oxy}-N-methylacetamide]
< 10	50 to 70			CNC(=O)COc1cc2cc(Nc3nc(N4CCC(F)(CN5CCC6(CC5)CCN(c5c(F)ccc7c5CN(C5CCC(=O)NC5=O)C7=O)CC6)CC4)ncc3Cl)ccc2n(C(C)C)c1=O (centres unmarked) [Compound 151, 2-{[6-({5-chloro-2-[4-({9-[2-(2,6-dioxopiperidin-3-yl)-5-fluoro-1-oxo-2,3-dihydro-1H-isoindol-4-yl]-3,9-diazaspiro[5.5]undecan-3-yl}methyl)-4-fluoropiperidin-1-yl]pyrimidin-4-yl}amino)-2-oxo-1-(propan-2-yl)-1,2-dihydroquinolin-3-yl]oxy}-N-methylacetamide]
